# Experimental data taken from publication PMC9648375, “Identification of the first-in-class dual inhibitors of human DNA topoisomerase IIα and indoleamine-2,3-dioxygenase 1 (IDO 1) with strong anticancer properties” (Journal of Enzyme Inhibition and Medicinal Chemistry, 2022).
# Key:
# [1] = system: FaDu (squamous cell carcinoma of the pharynx); experiment: BrdU assay; type: cell-based; conditions: Homo sapiens, 24 h, read-out: IC50 ± SD, antiproliferative activity
# Description: (§1) Since the inhibition of human DNA topoisomerase II should result in decreased proliferation of cancer cells, compounds 1-3 were tested using BrdU assay against a panel of cancer cell lines, including MCF-7 (estrogen-dependent human breast cancer cells), MDA-MB-231 (estrogen-independent human breast cancer cells), SCC-25 (squamous cell carcinoma of the tongue), FaDu (squamous cell carcinoma of the pharynx), A549 (human lung carcinoma), AGS (human gastric adenocarcinoma), LS-180, HT-29 (colon cancer cell lines), T98G (glioblastoma cells), and A375 (melanoma cells). Human normal skin fibroblasts (CRL-2072) were also used as a reference cell line. The BrdU assay allows quantification of cell proliferation since it measures incorporation of thymidine analogue (BrdU) during DNA replication. […] However, although the antiproliferative effect caused by 3 was mostly weaker (except for A549 and A375) than observed for 1, but the former compound was also characterised by lower toxicity against human normal cells. It results in selectivity index approaching 125 and 57, when it comes to lung cancer (A549) and melanoma cells (A375), respectively.
# (§2) Cytotoxicity of the synthesised compounds were examined against a panel of the cancer cell lines, MCF-7 (estrogen-dependent human breast cancer cells), MDA-MB-231 (oestrogen-independent human breast cancer cells), SCC- 25 (squamous cell carcinoma of the tongue), FaDu (squamous cell carcinoma of the pharynx), A- 549 (human lung carcinoma), AGS (human gastric adenocarcinoma), LS-180, HT-29 (colon cancer cell lines), T98G (glioblastoma cells), A375 (melanoma cells). Human embryonic kidney (HEK-293) cells and human normal skin fibroblasts (CRL-2072) were used as reference cell lines. The investigated cell lines were obtained from American Type Culture Collection (ATCC; Manassas, VA, USA). A375, MCF-7, MDA-MB-231, T98G cells were cultured in Dulbecco’s Modified Eagle’s Medium (DMEM) (Sigma Aldrich, St. Louis, MO, USA) supplemented with 10% heat inactivated foetal bovine serum (FBS), penicillin (100 U/mL), and streptomycin (100 μg/mL). SCC-25 cells were cultured in 1:1 mixture of Dulbecco’s modified Eagle’s medium and Ham’s F12 Medium (Sigma Aldrich, St. Louis, MO, USA) supplemented with 400 ng/ml hydrocortisone, 10% FBS, penicillin (100 U/mL), and streptomycin (100 μg/mL). A549 and AGS cells were maintained in F-12K Medium (Sigma Aldrich, St. Louis, MO, USA). LS-180 and FaDu cells were cultured in Eagle’s Minimum Essential Medium. HT-29 cells were maintained in McCoy’s 5 A Medium (Sigma Aldrich, St. Louis, MO, USA) supplemented with 10%FBS, penicillin (100 U/mL), and streptomycin (100 μg/mL). All the cells were maintained at 37 °C in a humidified atmosphere of 5% CO2.
# (§3) The BrdU assay was performed to determine the effect of synthesised compounds on the proliferation of cancer cells. BrdU assay indicates the rate of incorporation of 5′-bromo-2′-deoxy-uridine (BrdU) during DNA biosynthesis. In brief, cells were plated in 96-well plates (NUNC, Roskilde, Denmark) at the density of 3 × 10^4 cells/mL. […] Cell proliferation was examined after 24 h and 48 h of incubation according to the manufacturer’s protocol (Cell Proliferation ELISA BrdU, Roche Diagnostics GmbH, Penzberg,)Germany).
# [2] = system: HT-29 (colon cancer cell line); experiment: BrdU assay; type: cell-based; conditions: Homo sapiens; HT-29, BrdU, 24 h; read-out: IC50 ± SD, antiproliferative activity
# Description: as §1, §2, §3
# [3] = system: SCC-25 (squamous cell carcinoma of the tongue); experiment: BrdU assay; type: cell-based; conditions: Homo sapiens; SCC-25, BrdU, 24 h; read-out: IC50 ± SD, antiproliferative activity
# Description: as §1, §2, §3
# [4] = system: T98G (glioblastoma cells); experiment: BrdU assay; type: cell-based; conditions: Homo sapiens, 24 h, read-out: IC50 ± SD, antiproliferative activity
# Description: as §1, §2, §3
# [5] = system: LS180 (colon cancer cell line); experiment: BrdU assay; type: cell-based; conditions: Homo sapiens, 24 h, read-out: IC50 ± SD, antiproliferative activity
# Description: as §1, §2, §3
# [6] = system: AGS (human gastric adenocarcinoma); experiment: BrdU assay; type: cell-based; conditions: 24 h, read-out: IC50 ± SD, antiproliferative activity
# Description: as §1, §2, §3
# [7] = system: MCF-7 (estrogen-dependent human breast cancer cells); experiment: BrdU assay; type: cell-based; conditions: MCF7, MCF-7, BrdU, 24 h, read-out: IC50 ± SD, antiproliferative activity
# Description: as §1, §2, §3
# [8] = system: MDA-MB-231 (estrogen-independent human breast cancer cells); experiment: BrdU assay; type: cell-based; conditions: MDA-MB-231, BrdU, 24 h, read-out: IC50 ± SD, antiproliferative activity
# Description: as §1, §2, §3
# [9] = system: A549 (human lung carcinoma); experiment: BrdU assay; type: cell-based; conditions: for IC50: Homo sapiens, A549, BrdU, 24 h, read-out: IC50 ± SD, antiproliferative activity
# Description: as §1, §2, §3
# [10] = system: Human normal skin fibroblasts (CRL-2072); experiment: BrdU assay; type: cell-based; conditions: Skin fibroblast, 24 h, read-out: IC50 ± SD, antiproliferative activity
# Description: as §1, §2, §3
# A375 (melanoma cells) = experiment: BrdU assay; type: cell-based, human; conditions: for IC50: Homo sapiens, A-375, A375, BrdU, 24 h, read-out: IC50 ± SD, antiproliferative activity
# Description: as §1, §2, §3
# [11] = target: T1, indoleamine-2,3-dioxygenase 1 (IDO 1) (Homo sapiens, UniProt P14902); experiment: Universal IDO1/IDO2/TDO Inhibitor Screening Assay Kit; type: biochemical; conditions: fixed dose of 50 µg/ml; read-out: IDO 1 inhibition (%) ± SD
# T1 construct: purchased BPS Bioscience, Inc. (San Diego, CA, USA)
# T1 sequence (P14902 whole entry): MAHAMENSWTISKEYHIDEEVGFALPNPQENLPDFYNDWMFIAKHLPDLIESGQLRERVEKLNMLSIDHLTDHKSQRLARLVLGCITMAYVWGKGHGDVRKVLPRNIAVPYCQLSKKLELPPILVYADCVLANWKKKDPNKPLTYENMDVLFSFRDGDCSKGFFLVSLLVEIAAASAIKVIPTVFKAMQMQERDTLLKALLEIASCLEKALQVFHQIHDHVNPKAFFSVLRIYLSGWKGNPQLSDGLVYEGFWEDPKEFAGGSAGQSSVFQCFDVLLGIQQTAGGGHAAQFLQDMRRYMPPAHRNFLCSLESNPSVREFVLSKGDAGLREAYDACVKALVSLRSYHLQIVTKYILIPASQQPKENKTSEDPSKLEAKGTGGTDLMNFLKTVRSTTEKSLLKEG
# Description: Inhibitory effects of the investigated compounds were determined using Universal IDO1/IDO2/TDO Inhibitor Screening Assay Kit from BPS Bioscience, Inc. (San Diego, CA, USA). This colorimetric assay is based on the measurement of the ability of IDO1, IDO2 and TDO to convert L-tryptophan into N-formylkynurenine (NFK). The experiments were performed according to the manufacturer’s guidelines. The final concentration of the compounds in the reaction mixture was 50 µg/mL. The amount of NFK was measured spectrophotometrically at 320 nm using Epoch BioTek microplate reader (BioTek Instruments, Inc., Winooski, VT, USA). The samples were run in triplicate and the results were expressed as mean ± SD.
# [12] = target: T2, human DNA topoisomerase IIα (Homo sapiens, UniProt P11388); experiment: Human topoisomerase IIα relaxation assay; type: biochemical; conditions: agarose gel, densitometry; read-out: IC50 ± SD, relaxation activity of human DNA topoisomerase IIα
# T2 construct: purchased Inspiralis Ltd, Norwich, UK
# T2 sequence (P11388 whole entry): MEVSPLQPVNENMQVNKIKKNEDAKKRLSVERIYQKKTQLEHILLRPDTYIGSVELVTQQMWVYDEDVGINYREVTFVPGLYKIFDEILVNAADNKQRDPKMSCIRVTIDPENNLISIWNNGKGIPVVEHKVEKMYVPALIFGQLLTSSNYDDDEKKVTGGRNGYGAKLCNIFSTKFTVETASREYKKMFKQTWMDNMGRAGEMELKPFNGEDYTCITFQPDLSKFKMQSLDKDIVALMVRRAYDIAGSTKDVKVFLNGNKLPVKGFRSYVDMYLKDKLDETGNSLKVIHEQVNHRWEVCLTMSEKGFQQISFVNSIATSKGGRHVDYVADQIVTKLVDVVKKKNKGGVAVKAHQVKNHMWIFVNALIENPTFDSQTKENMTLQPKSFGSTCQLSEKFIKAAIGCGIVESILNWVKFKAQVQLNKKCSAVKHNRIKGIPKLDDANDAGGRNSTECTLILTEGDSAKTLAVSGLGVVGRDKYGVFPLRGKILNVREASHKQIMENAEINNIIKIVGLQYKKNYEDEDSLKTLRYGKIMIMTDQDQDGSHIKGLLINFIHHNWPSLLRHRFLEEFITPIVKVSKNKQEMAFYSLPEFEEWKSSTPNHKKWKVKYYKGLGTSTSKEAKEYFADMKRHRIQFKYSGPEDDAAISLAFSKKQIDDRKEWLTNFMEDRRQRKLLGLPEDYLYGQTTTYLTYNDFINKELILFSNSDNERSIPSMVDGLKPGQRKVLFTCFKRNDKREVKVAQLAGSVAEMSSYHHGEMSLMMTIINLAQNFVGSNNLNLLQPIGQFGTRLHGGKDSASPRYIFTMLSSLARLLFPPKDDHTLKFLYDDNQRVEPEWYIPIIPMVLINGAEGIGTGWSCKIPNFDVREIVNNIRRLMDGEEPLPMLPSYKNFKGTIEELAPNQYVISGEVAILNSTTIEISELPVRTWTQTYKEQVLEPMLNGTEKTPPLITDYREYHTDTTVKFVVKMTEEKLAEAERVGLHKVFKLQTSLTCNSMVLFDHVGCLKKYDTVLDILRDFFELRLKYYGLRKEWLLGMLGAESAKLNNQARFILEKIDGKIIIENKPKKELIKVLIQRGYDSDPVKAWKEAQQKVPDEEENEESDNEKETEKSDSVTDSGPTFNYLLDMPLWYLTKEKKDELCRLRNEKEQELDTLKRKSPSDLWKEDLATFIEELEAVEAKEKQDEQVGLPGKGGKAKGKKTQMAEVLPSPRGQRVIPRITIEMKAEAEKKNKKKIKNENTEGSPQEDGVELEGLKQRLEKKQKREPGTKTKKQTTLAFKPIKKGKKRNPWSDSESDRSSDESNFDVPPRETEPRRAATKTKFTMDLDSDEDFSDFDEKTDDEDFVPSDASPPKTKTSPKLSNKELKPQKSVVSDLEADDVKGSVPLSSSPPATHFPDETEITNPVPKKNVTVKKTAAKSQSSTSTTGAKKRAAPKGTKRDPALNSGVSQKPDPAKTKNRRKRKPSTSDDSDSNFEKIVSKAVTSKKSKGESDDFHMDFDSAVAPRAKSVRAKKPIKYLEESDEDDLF
# Description: As relaxation of supercoiled DNA (scDNA) is one of numerous functions of topoisomerase IIα, so the appearance/disappearance of relaxed DNA bands during agarose gel electrophoresis can be used to identify compounds that inhibit the enzyme.
# Briefly, the increased concentrations of the compounds were mixed with the reaction mixture, incubated according to the protocol and, after reaction termination, the samples were analysed by electrophoresis using 1% agarose gel containing 0.5 mg/mL of ethidium bromide in Tris-Acetate-EDTA (TAE) buffer. Visualisation of the bands was performed using an enhanced chemiluminescence system (Syngene G:BOX Chemi XT4, Cambridge, UK). For the quantitative determination of topoisomerase II inhibition, images were densitometrically scanned.
# The inhibition of topoisomerase II was calculate from the equation: % Inhibition=Intensity of compound−treated DNA/Intensity of vehicle−treated control DNA×100
Structure (SMILES),IC50 [1],IC50 [2],IC50 [3],IC50 [4],IC50 [5],IC50 [6],IC50 [7],IC50 [8],IC50 [9],IC50 [10],IC50 (A375 (melanoma cells)),inhibition at 50 µg/mL [11],melting point,IC50 [12],"selectivity index, A549 vs. human normal skin fibroblasts ([9]; BrdU assay, lung cancer (A549))","selectivity index, A375 vs. human normal skin fibroblasts (A375 (melanoma cells); BrdU assay, melanoma cells (A375))"
"CC(C)c1cccc(C(C)C)c1NC(=S)NNC(=O)Cc1cccc2ccccc12 [Compound 1, 4-(2,6-Diisopropylphenyl)-1-[(naphth-1-yl)acetyl]thiosemicarbazide]",1.04 ± 0.04 µg/mL,0.44 ± 0.03 µg/mL,1.1 ± 0.02 µg/mL,0.72 ± 0.02 µg/mL,4.68 ± 0.17 µg/mL,0.51 ± 0.02 µg/mL,1.19 ± 0.04 µg/mL,26.3 ± 0.99 µg/mL,0.23 ± 0.01 µg/mL,22.4 ± 0.94 µg/mL,0.96 ± 0.03 µg/mL,91.4 ± 1.82%,140 to 142 °C,71 ± 4.81 µM,,
"COc1cc([C@@H]2c3cc4c(cc3[C@@H](O[C@@H]3O[C@@H]5CO[C@@H](C)O[C@H]5[C@H](O)[C@H]3O)[C@H]3COC(=O)[C@H]23)OCO4)cc(OC)c1O [Etoposide, etoposide, reference compound]",12.8 ± 0.27 µg/mL,19.9 ± 0.25 µg/mL,21.2 ± 0.74 µg/mL,29.5 ± 0.93 µg/mL,> 100 µg/mL,46 ± 2.61 µg/mL,54.9 ± 1.82 µg/mL,> 100 µg/mL,2.6 ± 0.11 µg/mL,55.7 ± 3.01 µg/mL,9.18 ± 0.15 µg/mL,,,,,
"O=C(NNC(=S)Nc1ccc(N=Nc2ccccc2)cc1)c1ccccc1[N+](=O)[O-] [Compound 3, 4-(4-Phenylazophenyl)-1-(2-nitrobenzoyl)thiosemicarbazide]",9.04 ± 0.39 µg/mL,13.1 ± 0.81 µg/mL,4.89 ± 0.22 µg/mL,6.28 ± 0.37 µg/mL,10.6 ± 0.24 µg/mL,43.9 ± 1.94 µg/mL,32.5 ± 1.98 µg/mL,> 100 µg/mL,0.25 ± 0.01 µg/mL,32.1 ± 1.75 µg/mL,0.56 ± 0.03 µg/mL,21.4 ± 1.05%,168 to 170 °C,76.8 ± 4.85 µM,~125,~57
"O=C(Cc1cccc2ccccc12)NNC(=S)Nc1ccc(N=Nc2ccccc2)cc1 [Compound 2, 4-(4-Phenylazophenyl)-1-[(naphth-1-yl)acetyl]thiosemicarbazide]",7.11 ± 0.34 µg/mL,9.47 ± 0.51 µg/mL,1.06 ± 0.04 µg/mL,6.19 ± 1.83 µg/mL,10.4 ± 0.77 µg/mL,62.3 ± 3.04 µg/mL,33.2 ± 1.05 µg/mL,> 100 µg/mL,0.83 ± 0.03 µg/mL,24.2 ± 1.4 µg/mL,0.85 ± 0.04 µg/mL,41.4 ± 2.47%,178 to 180 °C,43.1 ± 2.27 µM,,
